From US10940188B2, “Compounds and methods for treatment and prevention of Flavivirus infection” (priority 2016, dated 2021)
Like-named read-outs stand apart in the source and are kept apart here.

Assays:
[1] = tested on: ZIKV-induced caspase 3/7 activity in human astrocytes; test: Caspase 3/7 activity assay, ZIKV-infected human astrocytes; format: cell-based; settings: ZIKV-infected human astrocytes; for IC50: read-out: Caspase 3 (IC50, uM) Astrocyte; for Emax: read-out: Caspase 3 (efficacy, %) Astrocyte
Outline: (§1)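 Human NPCs, SNB-19 cells or astrocytes seeded 16 h, compound added 30 min before ZIKV, then 6 h infection at 37 °C. Caspase-Glo 3/7 luminescence after 30 min at room temperature, normalized to uninfected cells (0%) and ZIKV-infected cells (100%).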

[2] = tested on: ZIKV-induced caspase 3/7 activity in SNB-19 cells; test: Caspase 3/7 activity assay, ZIKV-infected SNB-19 cells; format: cell-based; settings: for Emax: read-out: Caspase 3 (efficacy, %) SNB-19
Outline: as §1

[3] = tested on: ZIKV-induced cell death in human astrocytes; test: ATP cell viability assay for ZIKV-induced cell death, human astrocytes; format: cell-based
[4] = tested on: ZIKV-induced cell death in hNPCs; test: ATP cell viability assay for ZIKV-induced cell death, hNPCs; format: cell-based, human; settings: for IC50: Homo sapiens
Description: (§2) The reagent was reconstituted and prepared as described by the manufacturer. In order to measure the cell death caused by ZIKV infection, cells were cultured for 16 hours at 37° C. with 5% CO2 in assay plates, followed by the addition of ZIKV solution and incubation at 37° C. with 5% CO2 for 72 hours. ATPlite, the ATP monitoring reagent, was then added to the assay plates and they were incubated for 15 minutes. The resulting luminescence was measured using the ViewLux plate reader (Perkin Elmer). Data were normalized using the wells without cells as a control for 100% cell killing, and cell-containing wells without ZIKV infection were used as full cell viability (0% cell killing).
Human NPCs were seeded onto PDL coated 1536-well assay plates at 250 cells per 3 μl/well and incubated at 37° C. in 5% CO2 for 16 hours. Test compounds dissolved in DMSO were transferred to assay plates at a volume of 23 nl/well by an automated pintool workstation (Wako Automation, San Diego, Calif.). Compounds were incubated with cells for 30 minutes at 37° C. in 5% CO2, immediately followed by the addition of 2 μl/well of ZIKV. Incubation time of compound-treated cells with ZIKV varied based on assay format. Experiments measuring virus-induced caspase 3/7 activity required a 6 hour incubation of ZIKV in the presence compounds at 37° C. in 5% CO2. Following this incubation, 3.5 μl/well of caspase 3/7 reagent mixture was added to assay plates. The plates were incubated for 30 minutes at room temperature, and the resultant luminescence signal was measured using a ViewLux plate reader (Perkin Elmer). Experiments measuring virus-induced cell death required a 72-hour incubation of ZIKV in the presence of compounds at 37° C. in 5% CO2. Following this incubation, 3.5 μl/well of ATP content detection reagent was added to assay plates, incubated for 30 minutes at the room temperature, and the resultant luminescence signal was measured in a ViewLux plate reader.
as §2, with “The ATPlite luminescence assay system assay kit (PerkinElmer) was used to determine cell viability. The reagent” for “The reagent”, “by the manufacture. In order” for “by the manufacturer. In order”, “followed by addition of” for “followed by the addition of”, “plates and incubated for” for “plates and they were incubated for”, “Elmer). Data was normalized using” for “Elmer). Data were normalized using”
Human NPCs were seeded onto PDL coated 1536-well assay plates at 250 cells per 3 μl/well and incubated at 37° C. in 5% CO2 for 16 hours. Test compounds dissolved in DMSO were transferred to assay plates at a volume of 23 nl/well by an automated pintool workstation (Wako Automation, San Diego, Calif.). Compounds were incubated with cells for 30 minutes at 37° C. in 5% CO2, immediately followed by the addition of 2 μl/well of ZIKV. Incubation time of compound-treated cells with ZIKV varied based on assay format. Experiments measuring virus induced caspase 3/7 activity required a 6 hour incubation of ZIKV in the presence compounds at 37° C. in 5% CO2. Following this incubation, 3 μl/well of caspase 3/7 reagent mixture was added to assay plates, incubated for 30 minute at room temperature, and the resultant luminescence signal was measured using a ViewLux plate reader (Perkin Elmer). Experiments measuring the virus induced cell death required a 72 hour incubation of ZIKV in the presence of compounds at 37° C. in 5% CO2. Following this incubation, 3 μl/well of ATP content detection reagent was added to assay plates, incubated for 30 minute at room temperature, and the resultant luminescence signal was measured in a ViewLux plate reader.

[5] = Homo sapiens, ZIKV-infected SNB-19 cells, read-out: Caspase 3 (IC50, uM) SNB-19
[6] = Homo sapiens, ZIKV-infected SNB-19 cells
[7] = ZIKV-infected SNB-19 cells, read-out: Caspase 3 (IC50, uM) SNB-19
[8] = Astrocyte, ZIKV-infected human astrocytes, read-out: Cell viability (IC50, uM) Astrocyte
[9] = Homo sapiens, Astrocyte, following ZIKV infection, read-out: IC50 (μM) for improving cell viability, Astrocytes

Row | Compound | IC50 ([1]; Astrocyte) [µM] | Emax ([1]; Astrocyte) [%] | IC50 [2, 5] [µM] | Emax [2, 6] [%] | Cell viability (efficacy, %) Astrocyte ([3]; ZIKV-infected human astrocytes) [%] | Cell viability (efficacy, %) NPCs ([4]; ZIKV-infected hNPCs) [%] | Caspase 3 (efficacy, %) Astrocyte [1] [%] | IC50 [1] [µM] | Caspase 3 (efficacy, %) SNB-19 ([2]; ZIKV-infected SNB-19 cells) [%] | IC50 [2, 7] [µM] | IC50 ([2]; Homo sapiens, SNB-19 cells, three ZIKV strains MR766, FSS13025, PRVABC59, read-out: IC50 in the caspase activity assay) [µM] | IC50 [3, 8] [µM] | IC50 [3, 9] [µM] | IC50 ([4]; ZIKV-infected hNPCs, read-out: Cell viability (IC50, uM) NPCs) [µM] | IC50 ([4]; following ZIKV infection, read-out: IC50 (μM) for improving cell viability, hNPCs) [µM] | IC50 ([3]; ZIKV-infected human astrocytes, read-out: Cell viability (IC50, uM) Astrocyte) [µM] | IC50 ([3]; following ZIKV infection, read-out: IC50 (μM) for improving cell viability, Astrocytes) [µM]
1 | O=C(Nc1ccc(C(=O)O)c(O)c1)c1ccccc1 [Benzoylpas] | 5.81 | 94.9 | 6.9 | 92.8 | 0.0 | 0.0 | – | – | – | – | – | – | – | – | – | – | –
2 | CN1CC(=O)NC1=NC(=O)Nc1cccc(Cl)c1 [Fenobam] | – | – | – | – | 0.0 | 0.0 | 97.2 | 9.2 | 110 | 7.31 | – | – | – | – | – | – | –
3 | O=C1NC(=O)C(=Cc2ccc(-c3ccc(F)cc3)o2)S1 [CAY10505] | – | – | – | – | 0.0 | 0.0 | 80.1 | 16.4 | 91.2 | 17.3 | – | – | – | – | – | – | –
4 | c1ccc2[nH]c(-c3cscn3)nc2c1 [Thiabendazole] | 10.3 | 81 | 14.6 | 89.4 | 0.0 | 0.0 | – | – | – | – | – | – | – | – | – | – | –
5 | Flurbiprofen axetil | – | – | – | – | 0.0 | 0.0 | 65.5 | 21.8 | 45.7 | 19.5 | – | – | – | – | – | – | –
6 | Cc1cc(O)c2c(c1)C(=O)c1cc(O)cc(O)c1C2=O [Emodin] | 3.27 | 86.4 | 4.35 | 83.3 | 0.0 | 0.0 | – | – | – | – | – | – | – | – | – | – | –
7 | C[C@H](NC(=O)C(=O)Nc1ccccc1C(C)(C)C)C(=O)N[C@@H](CC(=O)O)C(=O)COc1c(F)c(F)cc(F)c1F [Emricasan] | 0.46 | 77.1 | 0.62 | 97.6 | 98.7 | 54.4 | – | – | – | – | 0.13 to 0.9 | 4.11 | 4.11 | 3.88 | 3.88 | – | –
8 | CC(C(=O)O)c1ccc(C(=O)c2ccccc2)s1 (stereo not shown) [Tiaprofenic acid] | 6.15 | 88.2 | 10.3 | 96.2 | 0.0 | 0.0 | – | – | – | – | – | – | – | – | – | – | –
9 | O=C1NC(=O)/C(=C/c2ccc(-c3ccc(F)cc3O)o2)S1 [AS-252424] | – | – | – | – | 0.0 | 0.0 | 37.5 | 1.73 | 38.0 | 2.18 | – | – | – | – | – | – | –
10 | CN1CCN(c2cc3c(nn2)Oc2ccccc2N3C)CC1 [Pipofezine] | 11.3 | 56.3 | 15.1 | 31.5 | 0.0 | 0.0 | – | – | – | – | – | – | – | – | – | – | –
11 | Cc1ccc(O)c(-n2nc3ccccc3n2)c1 [2-(2H-Benzotriazol-2-yl)-4-methylphenol] | 9.2 | 68.5 | 8.69 | 80.1 | 0.0 | 0.0 | – | – | – | – | – | – | – | – | – | – | –
12 | CC(C(=O)O)c1ccc(C(=O)c2cccs2)cc1 (stereo not shown) [Suprofen] | 19.5 | 64.5 | 17.3 | 65.6 | 0.0 | 0.0 | – | – | – | – | – | – | – | – | – | – | –
13 | O=C(c1ccccc1)c1ccc2n1CCC2C(=O)O (stereo not shown) [Ketorolac tromethamine] | 21.8 | 61.7 | 17.3 | 84.5 | 0.0 | 0.0 | – | – | – | – | – | – | – | – | – | – | –
14 | O=C(O)CCC(=O)c1ccc(-c2ccccc2)cc1 [Fenbufen] | 21.8 | 81.5 | 24.5 | 76.3 | 0.0 | 0.0 | – | – | – | – | – | – | – | – | – | – | –
15 | O=C(Nc1ccc([N+](=O)[O-])cc1Cl)c1cc(Cl)ccc1O [Niclosamide] | 1.84 | 96.8 | 2.06 | 93.9 | 51.2 | – | – | – | – | – | – | 1.73 | 1.73 | – | – | – | –
16 | CC(=O)Nc1ccc([C@H](C)C(=O)Nc2ncc(C(C)C)s2)cc1 [PHA-690509] | – | – | – | – | 81.9 | – | 71.6 | 13 | 74.6 | 9.2 | – | – | – | – | – | 7.74 | 7.47
